In PubChem BioAssay (NCI):
Several values for one entry are separate records, joined by “and”; a condition that tells them apart may be missing. Identical values can stand only once.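 Compound exposure: 48 hours, 5 concentrations, 96-well plates. GI50 = concentration required for 50% inhibition of growth. The concentration for full growth arrest is given as TGI.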

How the values were obtained:
Assay in all cases: growth of human tumour cells (NCI), 48 h
DLD-1 colon = test system: DLD-1 colon
DMS 273 small cell lung = test system: DMS 273 small cell lung
HOP-18 NSCLC = test system: HOP-18 NSCLC
KM20L2 colon = test system: KM20L2 colon
M19-MEL melanoma = test system: M19-MEL melanoma
RXF-631 renal = test system: RXF-631 renal
XF 498 CNS = test system: XF 498 CNS
MDA-MB-435 = test system: MDA-MB-435
MDA-N = test system: MDA-N

CCCCOC(=O)NC(=O)c1cn(CCCOC(=O)NCCCCCCNC(=O)OCCCn2cc(C(=O)NC(=O)OCCCC)c(=O)[nH]c2=O)c(=O)[nH]c1=O
TGI (DLD-1 colon): > 100 µM | TGI (DMS 273 small cell lung): > 100 µM | TGI (HOP-18 NSCLC): > 100 µM | TGI (KM20L2 colon): > 100 µM | TGI (M19-MEL melanoma): > 100 µM | TGI (RXF-631 renal): > 100 µM | TGI (XF 498 CNS): 93.1 µM

CCC(C)(C)c1ccc(OCCCCCCN2CCNCC2)cc1
GI50 (MDA-MB-435): 1.54 µM | TGI (MDA-MB-435): 3.09 µM

C=C1C[C@]23CCC4C(C)(C)C(=O)CC[C@]4(C)C2C[C@H]1C(O)C3=O (some centres undefined)
TGI (DLD-1 colon): > 75 µM | TGI (HOP-18 NSCLC): > 75 µM | TGI (KM20L2 colon): > 75 µM | TGI (M19-MEL melanoma): > 75 µM | TGI (RXF-631 renal): > 75 µM | TGI (XF 498 CNS): > 75 µM

O=C1CC2C(=O)N(Cc3ccccc3)C1C=C2S(=O)(=O)c1ccccc1 (centres undefined)
TGI (DLD-1 colon): > 100 µM | TGI (HOP-18 NSCLC): > 100 µM | TGI (KM20L2 colon): > 100 µM | TGI (M19-MEL melanoma): > 100 µM | TGI (XF 498 CNS): > 100 µM

Nc1nc(SN=Nc2ccc(S(N)(=O)=O)cc2)c2[nH]cnc2n1
GI50 (MDA-MB-435): 0.39 µM | TGI (MDA-MB-435): > 100 µM

CC(C)OC(=O)NNc1cc(Cl)ccc1Cl
TGI (MDA-MB-435): > 100 µM | TGI (MDA-N): > 100 µM

CC(C)CCCC(C)[C@H]1CCC2[C@H]3C(CC[C@@]21C)[C@@]1(C)CCC=C[C@]12C[C@@H]2[C@@H]3O (some centres undefined)
TGI (DLD-1 colon): > 100 µM | TGI (DMS 273 small cell lung): > 100 µM | TGI (HOP-18 NSCLC): > 100 µM | TGI (KM20L2 colon): > 100 µM | TGI (RXF-631 renal): > 100 µM

COC(=O)CCC(=O)CC1CC(=O)C2CCCN12 (centres undefined)
TGI (DLD-1 colon): > 100 µM | TGI (DMS 273 small cell lung): > 100 µM | TGI (HOP-18 NSCLC): > 100 µM | TGI (KM20L2 colon): > 100 µM | TGI (M19-MEL melanoma): > 100 µM | TGI (XF 498 CNS): > 100 µM

Cc1ccc(C2(O)CC(c3ccc([N+](=O)[O-])o3)=NN2C(=O)COc2ccc(Cl)cc2)cc1 (centres undefined)
TGI (DLD-1 colon): > 100 µM | TGI (DMS 273 small cell lung): > 62.1 µM | TGI (HOP-18 NSCLC): > 100 µM | TGI (KM20L2 colon): 44.1 µM | TGI (M19-MEL melanoma): 19.7 µM | TGI (XF 498 CNS): 26.9 µM

COc1cc2c(cc1O)C1Cc3ccc(OC)c(O)c3C(C2)N1C (centres undefined)
TGI (MDA-MB-435): > 100 µM | TGI (MDA-N): > 100 µM

CN(C)C(=S)/N=c1\ss/c(=N\C(=S)N(C)C)n1-c1ccc(Cl)c(Cl)c1
TGI (DMS 273 small cell lung): > 100 µM | TGI (KM20L2 colon): > 100 µM | TGI (M19-MEL melanoma): > 100 µM

COC(=O)/C(C#N)=C1\CCC(O)N1 (centres undefined)
TGI (DLD-1 colon): > 100 µM | TGI (DMS 273 small cell lung): > 100 µM | TGI (HOP-18 NSCLC): > 100 µM | TGI (KM20L2 colon): > 100 µM | TGI (M19-MEL melanoma): > 100 µM | TGI (XF 498 CNS): > 100 µM

N.N.N.N.[Cl-].[Co+3].[N-]=[N+]=[N-].[N-]=[N+]=[N-]
GI50 (DLD-1 colon): > 100 µM | TGI (DLD-1 colon): > 100 µM | GI50 (DMS 273 small cell lung): > 100 µM | TGI (DMS 273 small cell lung): > 100 µM | GI50 (KM20L2 colon): > 100 µM | TGI (KM20L2 colon): > 100 µM

COc1cc2c(c(OC)n1)[C@]1(O)[C@H](O)[C@H](CN(C)C)[C@@H](c3ccccc3)[C@]1(c1ccc(C#N)cc1)O2
GI50 (MDA-MB-435): 0.0163 µM and 0.0143 µM | TGI (MDA-MB-435): 1.06 µM and 8.13 µM

COc1ccc2[nH]c3c4c(ccc3c2c1)C(=O)C=CC4=O
TGI (DLD-1 colon): 8.78 µM | TGI (DMS 273 small cell lung): 32 µM | TGI (HOP-18 NSCLC): 22.7 µM | TGI (KM20L2 colon): 43.1 µM | TGI (M19-MEL melanoma): 32.7 µM | TGI (MDA-MB-435): 66.5 µM | TGI (MDA-N): 29.7 µM

CC(C)N=c1cc2n(-c3ccc(Cl)cc3)c3ccccc3nc-2cc1Nc1ccc(Cl)cc1
GI50 (MDA-MB-435): 1.04 µM and 1.8 µM | TGI (MDA-MB-435): 2.74 µM and 4.46 µM

COc1cc2ccc3c4cc(OC)c(OC(C)C)cc4cnc3c2cc1OC
TGI (DLD-1 colon): > 100 µM | TGI (HOP-18 NSCLC): > 100 µM | TGI (KM20L2 colon): > 100 µM | TGI (M19-MEL melanoma): > 100 µM | TGI (RXF-631 renal): > 100 µM

COc1cc(C2=C(c3cn(C)c4ccccc34)COC2=O)cc(OC)c1OC
GI50 (MDA-MB-435): 0.0244 µM | TGI (MDA-MB-435): 0.0875 µM

O=c1[nH]cnc2cccc(Cl)c12
TGI (MDA-N): > 100 µM

COc1ccc(-c2c[nH]c(=S)n2-c2ccc(OC)cc2)cc1
GI50 (MDA-MB-435): > 50 µM | TGI (MDA-MB-435): > 50 µM

CC1=NN(C(=O)CC(=O)N(C(=O)c2ccccc2Cl)c2ccc(C)cc2)C(=O)C1N=Nc1ccc([N+](=O)[O-])cc1 (centres undefined)
TGI (DLD-1 colon): > 66.1 µM | TGI (DMS 273 small cell lung): > 95.7 µM | TGI (HOP-18 NSCLC): > 100 µM | TGI (KM20L2 colon): > 90.1 µM | TGI (XF 498 CNS): > 100 µM

COc1ccc(-c2ccc(/C=N/n3c(C)n[nH]c3=S)o2)c([N+](=O)[O-])c1
GI50 (MDA-MB-435): > 100 µM | TGI (MDA-MB-435): > 100 µM

COc1cc2cccc(N=Cc3cccc(OC)c3OC(C)C)c2cc1OC
TGI (DLD-1 colon): 70 µM | TGI (KM20L2 colon): > 100 µM | TGI (M19-MEL melanoma): 48.2 µM | TGI (XF 498 CNS): 55.4 µM

CCOC(=O)CNC(=O)c1ccccc1Nc1ccnc(C(F)(F)F)c1
GI50 (MDA-MB-435): 36.9 µM | TGI (MDA-MB-435): > 100 µM

C[C@@]12CCCc3coc(c31)C(=O)c1cc3c(cc12)C(=O)C=CC3=O
GI50 (DLD-1 colon): > 1 µM | TGI (DLD-1 colon): > 1 µM and 6.07 µM | TGI (DMS 273 small cell lung): > 1 µM | GI50 (HOP-18 NSCLC): > 1 µM | TGI (HOP-18 NSCLC): > 1 µM and 28.2 µM | GI50 (KM20L2 colon): > 1 µM | TGI (KM20L2 colon): > 1 µM and 35.1 µM | GI50 (M19-MEL melanoma): > 1 µM | TGI (M19-MEL melanoma): > 1 µM and 28 µM | GI50 (XF 498 CNS): > 1 µM | TGI (XF 498 CNS): > 1 µM and 29.6 µM

NC(CS/C(Cl)=C/Cl)C(=O)O (centres undefined)
GI50 (MDA-MB-435): 9.25 µM | TGI (MDA-MB-435): 31.5 µM

O=C1[C@H]2ON(c3ccccc3)C(c3ccc(Cl)cc3)[C@H]2C(=O)N1c1ccc(Cc2ccc(N3C(=O)[C@@H]4ON(c5ccccc5)C(c5ccc(Cl)cc5)[C@@H]4C3=O)cc2)cc1 (some centres undefined)
TGI (DLD-1 colon): > 100 µM | TGI (DMS 273 small cell lung): > 100 µM | TGI (HOP-18 NSCLC): > 100 µM | TGI (KM20L2 colon): > 100 µM | TGI (M19-MEL melanoma): > 100 µM | TGI (RXF-631 renal): > 100 µM

C[C@]12CC[C@@H]3c4ccc(O)cc4CC[C@H]3[C@@H]1CC[C@@H]2NS(=O)(=O)c1cccc(F)c1
GI50 (MDA-MB-435): 2.58 µM | TGI (MDA-MB-435): 8.77 µM

COc1ccc2c(c1)C(C)Cc1c(ncnc1-n1c(C)nc3ccccc31)N2C (centres undefined)
GI50 (MDA-MB-435): 0.315 µM | TGI (MDA-MB-435): 1.89 µM

N#C/C(=C/N1CCN(C(=O)c2ccco2)C1=S)C(=O)c1ccccc1
GI50 (MDA-MB-435): 11 µM | TGI (MDA-MB-435): 60.6 µM

CCOC(=O)c1c[nH]c2oc(/C=N/N3CC(CN4CCOCC4)OC3=O)cc2c1=O (centres undefined)
TGI (MDA-MB-435): > 100 µM | TGI (MDA-N): > 100 µM

C=CCNC(=O)N(CCC)CCCCC(NC(C)=O)C(=O)NCc1ccccc1 (centres undefined)
TGI (DMS 273 small cell lung): > 100 µM | TGI (HOP-18 NSCLC): > 100 µM | TGI (KM20L2 colon): > 100 µM | TGI (M19-MEL melanoma): > 100 µM | TGI (XF 498 CNS): > 100 µM

CC(=O)/C=C/c1ccc(C#Cc2ccccc2)s1
GI50 (MDA-MB-435): 13.8 µM | TGI (MDA-MB-435): 29.5 µM

O=C(Nc1cc(Cl)ccc1Cl)C(=O)C(c1cnc2ccccc2n1)[N+](=O)[O-] (centres undefined)
TGI (DLD-1 colon): > 100 µM | TGI (HOP-18 NSCLC): > 100 µM | TGI (KM20L2 colon): > 100 µM | TGI (M19-MEL melanoma): > 100 µM | TGI (RXF-631 renal): > 100 µM | TGI (XF 498 CNS): > 100 µM

COc1ccc2c(c1)[C@@]13CCCC[C@H]1[C@@H](C2)N(C)CC3=O
TGI (MDA-MB-435): 42.7 µM | TGI (MDA-N): 28.9 µM
